Read-outs that look alike come from different tables or passages of the source. Marks after values point to notes of the source that are not given here. Peptide text beside a SMILES is read from it.
Key:
[1] = system: Bacillus subtilis CMCC 63501; format: cell-based
Protocol: (§1) The peptide antibacterial activity was determined against both gram-positive and gram-negative bacteria strains, including Escherichia coli ATCC 25922, Escherichia coli UB1005, Salmonella enterica serovar typhimurium C77-31, Staphylococcus aureus ATCC 29213, Staphylococcus aureus ATCC 25923, Bacillus subtilis CMCC 63501, and Staphylococcus epidermidis ATCC 12228. Clinically isolated Escherichia coli EC183 was provided by the 4th Affiliated Hospital of Harbin Medical University. MIC of the peptides was measured using a modified version of the National Committee for Clinical Laboratory Standards (NCCLS) broth microdilution method as described previously. The bacterial strains were inoculated and grown to mid-log phase in fresh Mueller-Hinton broth (MHB) at 37 °C. Bacterial inoculum suspensions were prepared at a final concentration of approximately 1 × 10^5 CFU/ml. Peptides were 2-fold serially diluted to make different concentrations, from 0.5 to 256 μM. Equal volumes of inoculum suspensions were then added to each well of a sterile 96-well plate with different concentrations of peptides, and the plate was incubated for 18 h at 37 °C. Broth with or without bacteria was employed as the positive control or the negative control, respectively. MIC was defined as the lowest concentration of peptides that prevented visible turbidity by visual inspection. […] After overnight incubation at 37 °C, MBC was defined as the lowest concentration of peptides that killed at least 99.9% of the initial inoculums. Experiments were performed in triplicate with three biological replicates.

[2] = system: Clinically isolated Escherichia coli EC183; format: cell-based
Protocol: as §1

[3] = system: Escherichia coli ATCC 25922; format: cell-based
Protocol: as §1

Escherichia coli UB1005 [4] = format: cell-based
Protocol: as §1

[5] = system: Salmonella enterica serovar typhimurium C77-31; format: cell-based; conditions: three independent experiments; for MBC S. typhi C77-31: lowest concentration killing at least 99.9% of initial inoculum
Protocol: as §1

[6] = system: Staphylococcus aureus ATCC 25923; format: cell-based; conditions: ATCC 25923, 18 h
Protocol: as §1

[7] = system: Staphylococcus aureus ATCC 29213; format: cell-based
Protocol: as §1

[8] = system: Staphylococcus epidermidis ATCC 12228; format: cell-based; conditions: ATCC 12228, 18 h
Protocol: as §1

[9] = system: Candida albicans CGMCC 2.2086; assay: microbe, parasite or virus in culture; format: cell-based
Text: (§2) The antifungal activities were monitored in RPMI-1640 broth medium by a 2-fold microdilution assay according to the Clinical and Laboratory Standards Institute (CLSI) methods. The Candida albicans CGMCC 2.2086, Candida tropicalis CGMCC 2.1975, and Candida krusei CGMCC 2.1857 fungal strains were purchased from the China General Microbiological Culture Collection Center (CGMCC, Beijing, China). Clinically isolated Candida albicans CA2761 was provided by the 4th Affiliated Hospital of Harbin Medical University. Briefly, fungal strains were cultured on YPD agar plates (1% peptone, 0.5% yeast extract, 1% glucose and 2% agar) at 28 °C to prepare Candida suspensions with a turbidity of a 0.5 McFarland standard. A total of 50 μl inoculum cell suspension diluted in RPMI-1640 broth medium was added to an equal volume of peptide solution to achieve a final peptide concentrations ranging from 0.25 μM to 128 μM in a 96-well plate. Pure broth alone or with inoculum suspensions was used as the negative control or the positive control, respectively. The plate was incubated at 28 °C for 48 h. MIC was considered the lowest concentration at which no fungal growth was visually observed under experimental conditions. […] After 48 h incubation at 28 °C, MFC was defined as the lowest concentration of peptides that killed at least 99.9% of the initial inoculums. Experiments were performed in triplicate with three biological replicates.

[10] = system: Candida krusei CGMCC 2.1857; assay: microbe, parasite or virus in culture; format: cell-based
Text: as §2

[11] = system: Candida tropicalis CGMCC 2.1975; assay: microbe, parasite or virus in culture; format: cell-based
Text: as §2

[12] = system: C. albicans CA276 (clinical isolate); assay: microbe, parasite or virus in culture; format: cell-based, Candida albicans
Text: as §2

[13] = system: fungi (four Candida strains); assay: Geometric mean MIC and selectivity index, panel of fungi; format: cell-based; conditions: geometric mean of the MIC values against the fungi of Table 3
Text: The antifungal activities were monitored in RPMI-1640 broth medium by a 2-fold microdilution assay according to the Clinical and Laboratory Standards Institute (CLSI) methods. The Candida albicans CGMCC 2.2086, Candida tropicalis CGMCC 2.1975, and Candida krusei CGMCC 2.1857 fungal strains were purchased from the China General Microbiological Culture Collection Center (CGMCC, Beijing, China). Clinically isolated Candida albicans CA2761 was provided by the 4th Affiliated Hospital of Harbin Medical University. Briefly, fungal strains were cultured on YPD agar plates (1% peptone, 0.5% yeast extract, 1% glucose and 2% agar) at 28 °C to prepare Candida suspensions with a turbidity of a 0.5 McFarland standard. A total of 50 μl inoculum cell suspension diluted in RPMI-1640 broth medium was added to an equal volume of peptide solution to achieve a final peptide concentrations ranging from 0.25 μM to 128 μM in a 96-well plate. Pure broth alone or with inoculum suspensions was used as the negative control or the positive control, respectively. The plate was incubated at 28 °C for 48 h. MIC was considered the lowest concentration at which no fungal growth was visually observed under experimental conditions. […]
SI values were determined by the ratio of MHC to GM, indicating the specificity of peptides towards pathogens and eukaryotic cells. […]

[14] = system: Escherichia coli ATCC 25922; conditions: values marked c, determined as previously described; cited from earlier work
Text: Table 2 MIC and MBC of the peptides against bacteria. | column: MIC ^a (MBC ^b) (μM) / Gram-negative bacteria / E. coli 25922

Escherichia coli UB1005 [15] = conditions: values marked c, determined as previously described; cited from earlier work
Text: Table 2 MIC and MBC of the peptides against bacteria. | column: MIC ^a (MBC ^b) (μM) / Gram-negative bacteria / E. coli 1005

[16] = system: Salmonella enterica serovar typhimurium C77-31; conditions: values marked c, determined as previously described; cited from earlier work
Text: Table 2 MIC and MBC of the peptides against bacteria. | column: MIC ^a (MBC ^b) (μM) / Gram-negative bacteria / S. typhi C77-31

[17] = system: Staphylococcus aureus ATCC 29213; conditions: values marked c, determined as previously described; cited from earlier work
Text: Table 2 MIC and MBC of the peptides against bacteria. | column: MIC ^a (MBC ^b) (μM) / Gram-positive bacteria / S. aureus 29213

[18] = system: Staphylococcus aureus ATCC 25923; conditions: values marked c, determined as previously described; cited from earlier work
Text: Table 2 MIC and MBC of the peptides against bacteria. | column: MIC ^a (MBC ^b) (μM) / Gram-positive bacteria / S. aureus 25923

[19] = system: Staphylococcus epidermidis ATCC 12228; conditions: values marked c, determined as previously described; cited from earlier work
Text: Table 2 MIC and MBC of the peptides against bacteria. | column: MIC ^a (MBC ^b) (μM) / Gram-positive bacteria / S. epidermidis 12228

[20] = Clinically isolated EC183, 18 h
[21] = lowest concentration killing at least 99.9% of initial inoculum, three independent experiments
[22] = CLSI 2-fold microdilution, RPMI-1640, 28 °C for 48 h, visual, three independent experiments
[23] = lowest concentration killing at least 99.9% of initial inoculum, YPD agar, 48 h at 28 °C, three independent experiments

CC[C@H](C)[C@H](NC(=O)[C@H](Cc1c[nH]c2ccccc12)NC(=O)[C@H](CCCCN)NC(=O)[C@H](CC(C)C)NC(=O)[C@@H](NC(=O)[C@H](CCCCN)NC(=O)CNC(=O)[C@@H](NC(=O)[C@H](CCCCN)NC(=O)[C@H](CCCCN)NC(=O)[C@H](CC(C)C)NC(=O)[C@H](CCCNC(=N)N)NC(=O)[C@H](CCCCN)NC(=O)[C@H](CCCNC(=N)N)NC(=O)[C@@H](N)[C@@H](C)O)[C@@H](C)CC)C(C)C)C(N)=O [TI15] (H-TRKRLKKIGKVLKWI-NH2)
4 µM: MBC B. subtilis 63501 ([1]; CMCC 63501, 18 h) | MBC E. coli EC183 [2, 20] | MIC E. coli 1005 (Escherichia coli UB1005 [4]; UB1005, 18 h) | MFC ([11]; CGMCC 2.1975, 48 h, read-out: MFC C. tropicalis 2.1975)
32 µM: MBC S. typhi C77-31 [5] | MIC S. aureus 25923 [6] | MIC S. aureus 29213 ([7]; ATCC 29213, 18 h) | MIC S. epidermidis 12228 [8]
8 µM: MIC E. coli 25922 ([3]; ATCC 25922, 18 h) | MBC E. coli 1005 (Escherichia coli UB1005 [4]; UB1005, 18 h) | MIC S. typhi C77-31 ([5]; broth microdilution, MHB, ~1 × 10^5 CFU/ml, 18 h at 37 °C, visual) | MIC ([10]; CGMCC 2.1857, 48 h, read-out: MIC C. krusei 2.1857)
2 µM: MIC B. subtilis 63501 ([1]; CMCC 63501, 18 h) | MIC E. coli EC183 [2, 20] | MIC ([11]; CGMCC 2.1975, 48 h, read-out: MIC C. tropicalis 2.1975)
128 µM: MBC S. aureus 25923 [6] | MBC S. aureus 29213 ([7]; ATCC 29213, 18 h) | MFC C. albicans CA276 ([12]; CA276 (clinical isolate, 48 h)) | MIC C. albicans CA276 ([12]; CA276 (clinical isolate, 48 h))
64 µM: MBC S. epidermidis 12228 [8] | MFC C. albicans 2.2086 ([9]; CGMCC 2.2086, 48 h) | MIC C. albicans 2.2086 ([9]; CGMCC 2.2086, 48 h)
16 µM: MBC E. coli 25922 ([3]; ATCC 25922, 18 h) | MFC ([10]; CGMCC 2.1857, 48 h, read-out: MFC C. krusei 2.1857)

CC[C@H](C)[C@H](NC(=O)CN)C(=O)NCC(=O)N[C@@H](C)C(=O)N[C@H](C(=O)N[C@@H](CC(C)C)C(=O)N[C@@H](CCCCN)C(=O)N[C@H](C(=O)N[C@@H](CC(C)C)C(=O)N[C@H](C(=O)N[C@H](C(=O)NCC(=O)N[C@@H](CC(C)C)C(=O)N1CCC[C@H]1C(=O)N[C@@H](C)C(=O)N[C@@H](CC(C)C)C(=O)N[C@H](C(=O)N[C@@H](CO)C(=O)N[C@@H](Cc1c[nH]c2ccccc12)C(=O)N[C@H](C(=O)N[C@@H](CCCCN)C(=O)N[C@@H](CCCNC(=N)N)C(=O)N[C@@H](CCCCN)C(=O)N[C@@H](CCCNC(=N)N)C(=O)N[C@@H](CCC(N)=O)C(=O)N[C@@H](CCC(N)=O)C(N)=O)[C@@H](C)CC)[C@@H](C)CC)[C@@H](C)O)[C@@H](C)O)C(C)C)C(C)C [melittin, reference compound]
8 µM: MFC [9, 23] | MIC [12, 22] | MIC S. aureus 29213 [17]
2 µM: MBC B. subtilis 63501 [1, 21] | MIC E. coli EC183 ([2]; broth microdilution, MHB, ~1 × 10^5 CFU/ml, 18 h at 37 °C, visual, three independent experiments) | MBC E. coli EC183 [2, 21] | MIC [10, 22] | MIC C. tropicalis 2.1975 [11, 22] | MFC C. tropicalis 2.1975 [11, 23] | MIC E. coli 25922 [14] | MIC E. coli 1005 (Escherichia coli UB1005 [15])
4 µM: MBC E. coli 25922 ([3]; lowest concentration killing at least 99.9% of initial inoculum, plated on MHA after MIC incubation, three independent experiments) | MBC E. coli 1005 (Escherichia coli UB1005 [4]; [21]) | MIC [9, 22] | MFC [10, 23]
16 µM: MBC S. aureus 29213 [7, 21] | MFC [12, 23]
2^c (2) μM: MBC S. typhi C77-31 [5] | MIC S. typhi C77-31 [16]
8^c (8) μM: MIC S. aureus 25923 [18]
3.36 µM: GM (geometric mean of MIC values) Fungi [13]
0.5 µM: MIC S. epidermidis 12228 [19]

Source: article PMC4890124, “Antimicrobial activity, improved cell selectivity and mode of action of short PMAP-36-derived peptides against bacteria and Candida” (Scientific Reports, 2016)
